In patent publication US8759363B2, “Quinazoline-based T cell proliferation inhibitors” (Yissum Research Development Company of the Hebrew …, priority 2010, dated 2014):
Entries after “also recorded” stand apart in the source; their conditions may differ. Like-named read-outs stand apart in the source and are kept apart here.

Columns and labels:
MDA-MB-231 = MDA-MB-231 proliferation, BrdU uptake; assay type: cell-based; conditions: Homo sapiens
Description: (§1) Cells were depleted of fetal calf serum (FCS) for 12 hours. They were then stimulated to proliferate by addition of ConA (10 μg/ml) for PBMC from healthy individuals and for Jurkat cells, FCS (10%) for HEK293 and A375 cells, PDGF (30 ng/ml) for NIH 3T3 cells, and EGF (30 ng/ml) for MDA-MB-231, Cells (1×10^5) were cultured in 96-well plates for 3 days in the presence or absence of inhibitors at the concentrations specified in the text. Each condition was tested in duplicate wells.
(§2) Proliferation was assessed by BrdU incorporation using a colorimetric ELISA kit (Roche, Germany). Subsequent to labeling with 10 μM BrdU, DNA was denatured and the cells were incubated with anti-BrdU-POD, prior to the addition of colorimetric substrate (TMB). The reaction product was quantified by measuring absorbance at 450 nm in an ELISA plate reader (ELx800 BIO-TEK Instruments Inc.).
To characterize the mode of action of 2 (S101) in more detail, we first examined whether 2 inhibits non-hematopoietic cell lines. We studied the effect of 2 on the growth of four cell lines: NIH 3T3 (mouse embryonic fibroblasts), A-431 (human vulval carcinoma cells), MDA-MB-468 (human breast carcinoma cells), and PANC-1 (human pancreatic carcinoma cells) (FIGS. 1A-B). We also tested the inhibitors on human keratinocytes. […]

[1] = system: NIH 3T3, A-431, MDA-MB-468, PANC-1, human keratinocytes; assay: Growth of non-hematopoietic cell lines; assay type: cell-based; conditions: at high concentrations at which Jurkat and PBMC growth was strongly inhibited
Description: The inhibitor-treated cultures and controls were fixed in glutaraldehyde, 0.05% final concentration, for 10 min at room temperature. After washing, the plates were stained with 0.1% methylene blue in 0.1 M borate buffer, for 60 min at room temperature. The plates were rigorously washed to remove excess dye and dried. The dye taken up by cells was eluted in 0.1N HCl for 60 min at 37° C., and the OD of the solution was read at 620 nm. In preliminary titration experiments, linear readings were obtained for 1×10^3 to 4×10^4 cells/well.
To characterize the mode of action of 2 (S101) in more detail, we first examined whether 2 inhibits non-hematopoietic cell lines. We studied the effect of 2 on the growth of four cell lines: NIH 3T3 (mouse embryonic fibroblasts), A-431 (human vulval carcinoma cells), MDA-MB-468 (human breast carcinoma cells), and PANC-1 (human pancreatic carcinoma cells) (FIGS. 1A-B). We also tested the inhibitors on human keratinocytes. […] We also examined the effect of 2 on BrdU uptake by stimulated and non-stimulated PC-3 (human prostate cancer), HEK293 (human embryonic kidney), NIH-3T3, A375 (human malignant melanoma), and MDA-MB-231 (human breast adenocarcinoma).

PC3 = assay: PC-3 proliferation, BrdU uptake; assay type: cell-based; conditions: Homo sapiens
[2] = system: IL-2 secretion by Jurkat and PBMC cells; assay: IL-2 secretion after stimulation, ELISA; assay type: cell-based, human; conditions: anti-TCR, anti-CD28, PMA, ionomycin, ConA stimulation; up to 5 μM inhibitor
Description: Jurkat or PBMC cells were treated for 12 h with 1 μM, 0.5 μM or no inhibitor. Cells (1×10^6) were plated in 24-well plates (Nunc) and stimulated by C305 (dilution 1:500), anti-CD28 (1:100), PMA (50 ng/ml) or ionomycin (1 μM) for 12 h. Alternately, cells were stimulated for 24, 48 and 72 h in MLR. After stimulation cells were centrifuged at 130×g for 5 minutes at room temperature.
Supernatants were collected and IL-2 was assayed using the IL-2 ELISA kit (BioSource International USA, KH0022) according to the manufacturer's instructions. Absorbance was read at 450 nm in an ELISA plate reader (ELx800 BIO-TEK Instruments Inc.).
Jurkat cells, which originate from leukemia, divide with no need of exogenous IL-2 stimulation since they produce their own, whereas PBMC proliferation requires exogenous IL-2 for growth. As expected, IL-2 secretion levels were lower in cells isolated from the blood (PBMC) than in Jurkat cells (FIGS. 5A-B). We analyzed the effect of 2 on IL-2 secretion in both Jurkat (FIG. 5A) and PBMC (FIG. 5B) cells, using a variety of T cell stimuli. Cells were stimulated with an antibody to the TCR alone or in combination with anti-CD28 or phorbol 12-myristate 13-acetate (PMA). In order to bypass the TCR, we also stimulated the cells with a combination of ionomycin, PMA and anti-CD28 (FIG. 5A). […]

PBMC = PBMC proliferation, BrdU incorporation; assay type: cell-based, human; conditions: Homo sapiens
Description: Blood samples were taken from healthy donors and loaded on a Ficoll density gradient to purify the PBMC population. T cells were purified by human anti-CD3 using an autoMACS instrument (Miltenyi Biotec, Bergisch-Gladbach, Germany), according to the manufacturer's instructions. The identity of T cells was confirmed by flow cytometry, as they stained positive for CD3. Cells were stimulated with ConA (10 μg/ml), ODN2006 (0.5 μg/ml; Enzo Life Sciences), or LPS (50 μg/ml; Sigma-Aldrich, Steinheim, Germany), for 72 h in the presence of the inhibitor, and their proliferation was measured in the BrdU incorporation assay as will be later described.
as §1, §2
Since we were not prejudiced towards any specific protein kinase, we used a biological assay for T cell proliferation. We tested our libraries for inhibition of proliferation of PBMC and Jurkat cells (Table 3). Cell proliferation was measured by BrdU uptake. […] PBMC cells were stimulated by a non-specific T cell mitogen, Concanavalin A (ConA). All of the compounds that were tested inhibited proliferation at micromolar or sub-micromolar concentrations.

COc1cc(-c2nc(Nc3ccc(C)cc3)c3ccccc3n2)cc(OC)c1OC [Compound 2, N-p-tolyl-2-(3,4,5-trimethoxyphenyl)quinazolin-4-amine]
IC50 (MDA-MB-231; MDA-MB-231, EGF (30 ng/ml) activated, read-out: IC50 of stimulated cells): > 10 µM
IC50 (MDA-MB-231; MDA-MB-231, non-stimulated, read-out: IC50 of non-stimulated cells): > 10 µM
effect on growth of non-hematopoietic cell types [1]: slightly affected
IC50 (PC3; PC3, non-stimulated, read-out: IC50 of non-stimulated cells): ~10 µM
IC50 (PC3; PC3, stimulated, read-out: IC50 of stimulated cells): > 10 µM
effect on IL-2 levels in the medium [2]: no effect; also recorded: did not affect
IC50 (PBMC; PBMC, ConA 10 μg/ml, 72 h, read-out: IC50 ConA-stimulated proliferation of PBMC): ~100 nM
IC50 (PBMC; PBMC, ODN2006 0.5 μg/ml or LPS 50 μg/ml, 72 h, read-out: IC50 ODN2006 and LPS-stimulated proliferation of PBMCs): ~500 nM
IC50 (PBMC; ConA-stimulated PBMC, BrdU uptake, nM ± SD, read-out: IC50 PBMC proliferation inhibition): 70 nM
IC50 (PBMC; PBMC, non-stimulated, BrdU uptake, read-out: IC50 of non-stimulated cells): 50 nM
